Measured values from patent publication US9980943B2, “Methods of treating muscular dystrophy” (BOARD OF REGENTS OF THE NEVADA SYSTEM OF HIGHER EDUCATION, …, priority 2013, dated 2018).

Key:
Type in all cases: cell-based, mouse
[1] = test system: β-galactosidase in CMV-LacZ C2C12 myotubes; experiment: CMV-LacZ secondary screen in C2C12 myotubes (β-Gal stabilizing assay); conditions: for CMV-LACZ in Myotubes (β-galactosidase activity relative to DMSO): CMV-LacZ C2C12 myotubes, 96-well format; for CMV-LACZ in Myotubes, signal relative to DMSO: C2C12 CMV-LacZ myotubes, fold relative to DMSO
Outline: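 Dose-response runs at 0.5–40 μM (0.5, 1, 5, 10, 20, 40 μM; N=2 per point) used a clonal C2C12 line carrying CMV-LacZ. Cells were assayed as myoblasts or as differentiated myotubes, and β-galactosidase levels were read with the FDG fluorogenic substrate.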

[2] = test system: α7 integrin (LacZ reporter in α7+/LacZ myotubes); experiment: Myotube α7 integrin FDG assay (Burkin assay in myotubes, 96-well); conditions: myotubes
[3] = test system: α7 integrin (LacZ reporter in α7βgal+/− myoblasts); experiment: Myoblast α7+/LacZ integrin FDG assay (Burkin assay in myoblasts, 96-well); conditions: α7+/LacZ myoblasts, 96-well

For Cc1ccc(-c2onc3ccc(C(=O)/C=C/N(C)C)cc23)cc1 [MLS001166156-01], the “CMV-LACZ in Myotubes (β-galactosidase activity relative to DMSO)” value ([1]; 5 uM) was 0.8707, the “CMV-LACZ in Myotubes (β-galactosidase activity relative to DMSO)” value ([1]; 10 uM) was 0.9198 and the “CMV-LACZ in Myotubes (β-galactosidase activity relative to DMSO)” value ([1]; 20 uM) was 0.7796. The “CMV-LACZ in Myotubes (β-galactosidase activity relative to DMSO)” value ([1]; 40 uM) was 0.5227, the “Burkin Assay in Myotubes (signal relative to DMSO)” value ([2]; 0.5 uM) was 1.001 and the “Burkin Assay in Myotubes (signal relative to DMSO)” value ([2]; 1 uM) was 0.8521. For the same molecule, the “Burkin Assay in Myotubes (signal relative to DMSO)” value ([2]; 5 uM) was 1.07, the “Burkin Assay in Myotubes (signal relative to DMSO)” value ([2]; 10 uM) was 0.7592 and the “Burkin Assay in Myotubes (signal relative to DMSO)” value ([2]; 20 uM) was 0.8218. The “Burkin Assay in Myotubes (signal relative to DMSO)” value ([2]; 40 uM) was 0.4461, the “Burkin Assay in Myoblasts, value relative to DMSO” value ([3]; 0.5 uM) was 0.8005 and the “Burkin Assay in Myoblasts, value relative to DMSO” value ([3]; 1 uM) was 0.9085. For the same molecule, the “Burkin Assay in Myoblasts, value relative to DMSO” value ([3]; 5 uM) was 0.7543, the “Burkin Assay in Myoblasts, value relative to DMSO” value ([3]; 10 uM) was 0.7601 and the “Burkin Assay in Myoblasts, value relative to DMSO” value ([3]; 20 uM) was 0.7571. The “Burkin Assay in Myoblasts, value relative to DMSO” value ([3]; 40 uM) was 0.3481.

In the case of O=C(O)c1cc(-c2ccccc2Cl)n(-c2cccc(Cl)c2)n1 [MLS001166325-01], the “CMV-LACZ in Myotubes, signal relative to DMSO” value ([1]; 5 uM) is reported as 0.7726, the “CMV-LACZ in Myotubes, signal relative to DMSO” value ([1]; 10 uM) is reported as 0.9795 and the “CMV-LACZ in Myotubes, signal relative to DMSO” value ([1]; 20 uM) is reported as 0.8969. For the same molecule, the “CMV-LACZ in Myotubes, signal relative to DMSO” value ([1]; 40 uM) was 0.8785, the “Burkin Assay in Myotubes (signal relative to DMSO)” value ([2]; 0.5 uM) was 1.057 and the “Burkin Assay in Myotubes (signal relative to DMSO)” value ([2]; 1 uM) was 1.049. The “Burkin Assay in Myotubes (signal relative to DMSO)” value ([2]; 5 uM) was 1.112, the “Burkin Assay in Myotubes (signal relative to DMSO)” value ([2]; 10 uM) was 1.065 and the “Burkin Assay in Myotubes (signal relative to DMSO)” value ([2]; 20 uM) was 0.9593. The “Burkin Assay in Myotubes (signal relative to DMSO)” value ([2]; 40 uM) was 1.0054, the “Burkin Assay in Myoblasts, value relative to DMSO” value ([3]; 0.5 uM) was 1.017 and the “Burkin Assay in Myoblasts, value relative to DMSO” value ([3]; 1 uM) was 0.9268. For the same molecule, the “Burkin Assay in Myoblasts, value relative to DMSO” value ([3]; 5 uM) was 0.9487, the “Burkin Assay in Myoblasts, value relative to DMSO” value ([3]; 10 uM) was 0.9453 and the “Burkin Assay in Myoblasts, value relative to DMSO” value ([3]; 20 uM) was 0.9772. For the same molecule, the “Burkin Assay in Myoblasts, value relative to DMSO” value ([3]; 40 uM) was 1.032.

COc1ccc(Cl)cc1NC(=O)CC(=O)Nc1cc(Cl)ccc1OC [MLS001166704-01] was tested, and the “CMV-LACZ in Myotubes, signal relative to DMSO” value ([1]; 5 uM) was 1.088, the “CMV-LACZ in Myotubes, signal relative to DMSO” value ([1]; 10 uM) was 1.1553 and the “CMV-LACZ in Myotubes, signal relative to DMSO” value ([1]; 20 uM) was 1.4595. For the same molecule, the “CMV-LACZ in Myotubes, signal relative to DMSO” value ([1]; 40 uM) was 1.0685, the “Burkin Assay in Myotubes, α7 integrin LacZ reporter signal relative to DMSO” value ([2]; 0.5 uM) was 1.166 and the “Burkin Assay in Myotubes, α7 integrin LacZ reporter signal relative to DMSO” value ([2]; 1 uM) was 1.268. The “Burkin Assay in Myotubes, α7 integrin LacZ reporter signal relative to DMSO” value ([2]; 5 uM) was 0.8936, the “Burkin Assay in Myotubes, α7 integrin LacZ reporter signal relative to DMSO” value ([2]; 10 uM) was 1.065 and the “Burkin Assay in Myotubes, α7 integrin LacZ reporter signal relative to DMSO” value ([2]; 20 uM) was 0.7918. The “Burkin Assay in Myotubes, α7 integrin LacZ reporter signal relative to DMSO” value ([2]; 40 uM) was 0.81, the “Burkin Assay in Myoblasts, signal relative to DMSO” value ([3]; 0.5 uM) was 1.109 and the “Burkin Assay in Myoblasts, signal relative to DMSO” value ([3]; 1 uM) was 1.165. For the same molecule, the “Burkin Assay in Myoblasts, signal relative to DMSO” value ([3]; 5 uM) was 0.8499, the “Burkin Assay in Myoblasts, signal relative to DMSO” value ([3]; 10 uM) was 0.7652 and the “Burkin Assay in Myoblasts, signal relative to DMSO” value ([3]; 20 uM) was 0.5747. The “Burkin Assay in Myoblasts, signal relative to DMSO” value ([3]; 40 uM) was 0.4394.

For COC(=O)c1ccccc1NC(=O)c1cc[n+]([O-])cc1 [MLS001167169-01], the “CMV-LACZ in Myotubes, signal relative to DMSO” value ([1]; 5 uM) was 0.9323, the “CMV-LACZ in Myotubes, signal relative to DMSO” value ([1]; 10 uM) was 1.009 and the “CMV-LACZ in Myotubes, signal relative to DMSO” value ([1]; 20 uM) was 1.085. For the same molecule, the “CMV-LACZ in Myotubes, signal relative to DMSO” value ([1]; 40 uM) was 1.103, the “Burkin Assay in Myotubes, α7 integrin LacZ reporter signal relative to DMSO” value ([2]; 0.5 uM) was 0.8925 and the “Burkin Assay in Myotubes, α7 integrin LacZ reporter signal relative to DMSO” value ([2]; 1 uM) was 0.9375. The “Burkin Assay in Myotubes, α7 integrin LacZ reporter signal relative to DMSO” value ([2]; 5 uM) was 1.041, the “Burkin Assay in Myotubes, α7 integrin LacZ reporter signal relative to DMSO” value ([2]; 10 uM) was 0.9696 and the “Burkin Assay in Myotubes, α7 integrin LacZ reporter signal relative to DMSO” value ([2]; 20 uM) was 1.3902. The “Burkin Assay in Myotubes, α7 integrin LacZ reporter signal relative to DMSO” value ([2]; 40 uM) was 0.6262, the “Burkin Assay in Myoblasts, signal relative to DMSO” value ([3]; 0.5 uM) was 1.032 and the “Burkin Assay in Myoblasts, signal relative to DMSO” value ([3]; 1 uM) was 0.8858. For the same molecule, the “Burkin Assay in Myoblasts, signal relative to DMSO” value ([3]; 5 uM) was 0.9547, the “Burkin Assay in Myoblasts, signal relative to DMSO” value ([3]; 10 uM) was 0.9378 and the “Burkin Assay in Myoblasts, signal relative to DMSO” value ([3]; 20 uM) was 0.8133. For the same molecule, the “Burkin Assay in Myoblasts, signal relative to DMSO” value ([3]; 40 uM) was 0.9062.

In the case of CCOc1ccc2ccccc2c1C1NC(=O)N(C)C(C)=C1C(=O)OCCOC (centres unmarked) [MLS001167424-01], the “CMV-LACZ in Myotubes, signal relative to DMSO” value ([1]; 5 uM) is reported as 0.7491, the “CMV-LACZ in Myotubes, signal relative to DMSO” value ([1]; 10 uM) is reported as 0.9718 and the “CMV-LACZ in Myotubes, signal relative to DMSO” value ([1]; 20 uM) is reported as 1.157. The “CMV-LACZ in Myotubes, signal relative to DMSO” value ([1]; 40 uM) was 0.9925, the “Burkin Assay in Myotubes (signal relative to DMSO)” value ([2]; 0.5 uM) was 1.046 and the “Burkin Assay in Myotubes (signal relative to DMSO)” value ([2]; 1 uM) was 0.9596. For the same molecule, the “Burkin Assay in Myotubes (signal relative to DMSO)” value ([2]; 5 uM) was 1.365, the “Burkin Assay in Myotubes (signal relative to DMSO)” value ([2]; 10 uM) was 0.7848 and the “Burkin Assay in Myotubes (signal relative to DMSO)” value ([2]; 20 uM) was 1.0277. The “Burkin Assay in Myotubes (signal relative to DMSO)” value ([2]; 40 uM) was 0.9779, the “Burkin Assay in Myoblasts, value relative to DMSO” value ([3]; 0.5 uM) was 0.9904 and the “Burkin Assay in Myoblasts, value relative to DMSO” value ([3]; 1 uM) was 1.428. For the same molecule, the “Burkin Assay in Myoblasts, value relative to DMSO” value ([3]; 5 uM) was 0.8924, the “Burkin Assay in Myoblasts, value relative to DMSO” value ([3]; 10 uM) was 0.907 and the “Burkin Assay in Myoblasts, value relative to DMSO” value ([3]; 20 uM) was 0.7995. The “Burkin Assay in Myoblasts, value relative to DMSO” value ([3]; 40 uM) was 0.8164.
